Laboratory results taken from US8426369B2, “Prevention and treatment of colon cancer” (Rutgers, The State University of New Jersey, priority 2006, dated 2013).

Key:
TGF-β ligands = test: Induction of TGF-β ligands in HT-29 cells; format: cell-based, human; details: HT-29, data not shown
Excerpt: The significance of the transforming growth factor (TGF-β) pathway in down-regulating iNOS expression by pterostilbene was also investigated since TGF-β is a very potent inhibitor of iNOS and cytokines regulate Smad signaling of the TGF-β pathway. However, there was no effect of pterostilbene on activated Smad levels (p-Smad3) or in inducing TGF-β ligands (data not shown).

[1] = tested on: carcinogen-induced preneoplastic lesions; details: MMOC model; cited from earlier work
HT-29 cells = test: [3H]Thymidine incorporation cell proliferation assay in HT-29 cells; format: cell-based, human; details: Homo sapiens, HT-29, 30 μM at 3 days, read-out: inhibition of DNA synthesis
Experimental: The stilbenes illustrated in FIG. 4 were also used to investigate their ability to inhibit cell proliferation in HT-29 cell line. In this experiment, HT-29 cells (20,000 cells/well in 24-well plate) were treated with the respective stilbenes (each used either at 30 μM or 3 μM) in 10% FBS/DMEM for three days.
(§1) Human colon carcinoma cell lines HT-29 was obtained from the American Type Culture Collection (Manassas, Va.). The cells were maintained in Dulbecco's modification of Eagle's medium (DMEM) supplemented with 10% FBS and 1% penicillin/streptomycin at 37° C. and 5% CO2. The cytokine mixture, consisting of 10 ng/ml of TNF-α, IFN-γ and LPS, was used to induce iNOS and COX-2, unless otherwise mentioned. The cells were treated with the test compound either alone or in combination with cytokines for different time intervals and harvested for protein or RNA.
HT-29 cells were plated at a density of 20,000 cells/well in a 24 well plate and treated with varying concentrations of pterostilbene for a period of 1, 2 or 3 days at 37° C. Before harvest, the cells were incubated with 1 μCi [^3H]thymidine for 4 h at 37° C. and were washed with phosphate buffered saline. The cells were precipitated with cold 10% trichloroacetic acid for 10 min and solubilized with 0.5 ml solubilization buffer (0.2 M NaOH, 40 μg/ml salmon sperm DNA) for 2 h at room temperature. The lysate was transferred to 5 ml Ecolume and the [3H]thymidine incorporated into the DNA of HT-29 cells was determined using a scintillation spectrometer (Beckman Coulter, Fullerton, Calif.).

iNOS = test: Cytokine-induced iNOS protein expression in HT-29 cells (Western blot); format: cell-based, human; details: HT-29; for inhibition of iNOS expression: with cytokine mixture (each 10 ng/ml), 15 hr
Experimental: HT-29 human colon adenocarcinoma cells were grown in 10% FBC/DMEM. Cells (about 600,000 cells/well) were plated in 6-well plate and treated with stilbene analogs shown in FIG. 4 (each at 10 μM) for 15 hours together with cytokine mixture comprising TNF-a, IFN0g, and LPS (each at 10 ng/ml). Cell lysates were prepared and subjected to Western Blot analysis.
as §1
(§2) The cell culture conditions and the reagents used in this example were described in Example 32. Whole cell extracts were collected after the various treatments and analyzed by western blotting. The protein samples were separated on 4-15% SDS-PAGE gels (Biorad, Hercules, Calif.) followed by transfer to a polyvinylidene fluoride membrane. The membranes were blocked with 5% milk in Tris buffer for 1 h and then incubated with the appropriate primary antibody solutions overnight at 4° C. The membranes were washed with Tris buffer, and incubated with horseradish peroxidase conjugated secondary antibody solutions for 1 h at room temperature.
The protein bands were visualized using a chemiluminescence based kit from Amersham Biosciences (Buckinghamshire, UK). The primary antibodies against iNOS, COX-2, IκBα, cyclin D1, c-myc (Santa Cruz Bio-technology, Santa Cruz, Calif.), phospho-STAT3, phospho-Erk1/2, phospho-JNK1/2, phospho-p38, phospho-Akt, phospho-ATF2, phospho-Elk1, PARP (Cell Signaling Technology Inc., Beverly, Mass.) and actin (Sigma, St. Louis, Mo.) and secondary antibodies (Santa Cruz Biotechnology, Santa Cruz, Calif.) were used for probing the abundance of the target protein in the samples.

cyclin D1 = test: Western blot of cyclin D1 in HT-29 cells; format: cell-based, human; details: 9 h or 18 h, especially at 9 h
Experimental: The cells were incubated with different concentrations of pterostilbene for 1, 2 and 3 days, and cell proliferation was estimated by measuring [^3H]thymidine incorporated into DNA. […] In order to evaluate whether pterostilbene potentiates cell cycle arrest or apoptosis in HT-29 cells, the effect of pterostilbene on the proteins regulating the cell cycle and/or apoptosis pathways was examined. Cells treated with pterostilbene for 9 h or 18 h were harvested and protein samples were analyzed by Western blotting (FIG. 8B).
as §2
The protein bands were visualized using a chemiluminescence based kit from Amersham Biosciences (Buckinghamshire, UK). […]

IL-1β mRNA = test: Quantitative RT-PCR of cytokine-induced IL-1β mRNA in HT-29 cells; format: cell-based, human; details: 10 and 30 μM
Experimental: The cell culture conditions and the reagents used in this example were described in Example 32. The gene-mediated expression of iNOS and COX-2 are reported to be regulated at both the transcriptional and translational levels. In order to understand the effect of pterostilbene on cytokine-induced expression of proinflammatory enzymes and cytokines, RNA samples after treatment of HT-29 cells with cytokines and/or pterostilbene were analyzed by quantitative RT-PCR for the induction of mRNA levels of iNOS, COX-2, IL-1β, IFN-γ and TNF-α genes.
To determine the changes of mRNA levels by pterostilbene and cytokines, quantitative RT-PCR analysis was utilized, as described previously (Lee et al., Mol Pharmacol 2006; 69(6):1840-1848). Briefly, the cells were incubated with compounds for indicated period and the cells were then lysed using Trizol to extract RNA. RNA was reverse transcribed into cDNA using a high capacity cDNA archive kit (Applied Biosystems, Foster City, Calif.). The cDNA was used for quantitative PCR which was run on the ABI Prism […] sequence Detection System. The primers for the iNOS, COX-2, IFN-γ, TNF-α, IL-1β and GAPDH were obtained from Applied Biosystems (Foster City, Calif.).

COc1cc(/C=C/c2ccc(O)cc2)cc(OC)c1 [pterostilbene, (E)-4-(3,5-dimethoxystyryl)phenol]
inducing TGF-β ligands (TGF-β ligands): no effect
preventing carcinogen-induced preneoplastic lesions [1]: as effective as resveratrol
inhibition at 30 µM (HT-29 cells): 71 ± 3%
inhibition of iNOS expression (iNOS; 1 μM): 14%
inhibition of iNOS expression (iNOS; 10 μM): 61%
induction of iNOS by the cytokine mixture (iNOS; 30 μM, 9, 12 and 15 h): markedly blocked
inhibition of iNOS expression (iNOS; 30 μM): 77%
induction of iNOS by the cytokine mixture, different concentrations (iNOS; different concentrations): dose-dependent manner
cyclin D1 level (cyclin D1): effective in reducing
IL-1β mRNA induction by the cytokine mixture (IL-1β mRNA): strongly inhibited
